From patent publication US9103790B2, “Linker for unimolecular FRET biosensor based on principle of fluorescence resonance energy transfer” (KYOTO UNIVERSITY, priority 2010, dated 2015)

What was measured:
[1] = test system: PKA; test: Drug sensitivity test with transgenic mouse expressing Eevee-PKA (3536 NES), two-photon FRET imaging of small intestine; type: in vivo; conditions: intravenous injection; intermuscular nerve cell, intestinal smooth muscle, vascular smooth muscle
Source text: FIG. 19 illustrates results when the transgenic mouse expressing Eevee-PKA (3536 NES) was intravenously injected with theophylline, which is a phosphodiesterase inhibitor, and actosin, which is a cyclic adenosine triphosphate analog, and measured for PKA activities.
The transgenic mouse expressing Eevee-PKA (3536 NES) generated in Example 10 was anesthetized with isoflurane. A small intestine of the mouse was time-lapse imaged by an inverted two-photon microscope IX81/FV1000 (product of Olympus Corporation). Cells were excited at 840 nm with a titanium-sapphire laser system (Mai Tai Deep See HP; product of Spectra-Physics, Inc.). CFP fluorescence and YFP fluorescence were acquired using BA 460-500 fluorescence filter (product of Olympus Corporation) and BA 520-560 fluorescence filter (product of Olympus Corporation), respectively. FRET images were obtained in the same manner as in Example 3.
The transgenic mouse was intravenously injected with theophylline, which is a phosphodiesterase inhibitor, and actosin, which is a cyclic adenosine triphosphate analog, and measured for PKA activities.

[2] = test system: EGF dependent-activation of ERK; test: Drug sensitivity test: FRET measurement of ERK activity in cell line stably expressing Eevee-ERK (3560 NES); type: cell-based, human; conditions: HeLa cells stably expressing Eevee-ERK (3560 NES); serial-diluted inhibitors; 25 ng/mL EGF; after 30 min; average of 30 or more cells
Experimental: FIG. 18A illustrates results when HeLa cells stably expressing Eevee-ERK were seeded onto a 96-well plate, were added thereto serial-diluted inhibitors and stimulated with 25 ng/mL EGF. ERK activities were automatically measured for 30 or more cells, averaged, and plotted. FIG. 18A illustrates results of DMSO controls.
A mammalian cell expression plasmid containing the gene of Eevee-ERK (3560 NES) described in Example 3 was inserted into a plasmid having a transposon recognition sequence. This plasmid and a transposon expression vector was co-transfected as previously reported and screened for biosensor-expressing cell lines by blasticidin [Yusa, K., R. Rad, J. Takeda, and A. Bradley. 2009. Generation of transgene-free induced pluripotent mouse stem cells by the piggyBac transposon. Nat. Methods 6 (5)363-369].
Cultured cell lines were seeded onto a 96-well culture plate. Serial-diluted inhibitors were added thereto. The cell lines were stimulated with 25 ng/mL EGF. After 30 min, ERK activities were measured as described in Example 3 (see FIGS. 18A to 18H). The average ERK activities of 30 or more cells were plotted. The following inhibitors were used: EGF receptor inhibitors (AG1478), MEK inhibitors (PD15035, PD184351), BRAF inhibitors (PLX4720), phosphatidylinositol 3-phosphate kinase inhibitors (LY294002), RSK inhibitors (BI-D1870) and JNK inhibitors (JNK inhibitor VIII).

| Compound | PKA activities (FRET) [1] | inhibition of EGF dependent-activation of ERK [2] |
| --- | --- | --- |
| CCCC(=O)Nc1ncnc2c1ncn2[C@@H]1O[C@@H]2COP(=O)([O-])O[C@H]2[C@H]1OC(=O)CCC.[Na+] [actosin] | Changes in PKA activities |  |
| COc1cc2ncnc(Nc3cccc(Br)c3)c2cc1OC [PD153035] |  | effectively inhibited |
| Cn1c(=O)c2[nH]cnc2n(C)c1=O [theophylline] | Changes in PKA activities |  |
| O=C(NOCC1CC1)c1ccc(F)c(F)c1Nc1ccc(I)cc1Cl [PD184352] |  | effectively inhibited |
| COc1cc2ncnc(Nc3cccc(Cl)c3)c2cc1OC [AG1478] |  | effectively inhibited |
